Measured values from US5625061A, “Compounds useful in preparing antiproliferative agents and garft inhibitors” (Agouron Pharmaceuticals, Inc., priority 1995, dated 1997).

Assays:
GARFT = conditions: F. M. Muggia, New Drugs, 1992; cited from earlier work
[1] = system: 6C3HED lymphosarcoma implanted in C3H/He female mice; experiment: In vivo antitumor activity, 6C3HED lymphosarcoma; design: species or system mouse; conditions: intraperitoneal, once daily for nine days, day 11
Protocol: (§1) On day zero, 2 mm^2 trocar fragments of 6C3HED lymphosarcoma were implanted subcutaneously in the axillary region into groups of six C3H/He female mice. Starting on day 1, the test compound was administered intraperitoneally in 40% Encapsin given once daily for nine days. Control animals received identical treatment without test: compound. The percentage inhibition given in Table 5 below was calculated by comparing the mass of the control tumors (receiving diluent only) on day 11 to those of animals receiving test compound.

[2] = system: C3H/BA mammary adenocarcinoma implanted in C3H/He female mice; experiment: In vivo antitumor activity, C3H/BA mammary adenocarcinoma; design: species or system mouse; conditions: intraperitoneal, once daily for nine days, day 14
Protocol: as §1, with “C3H/BA mammary adenocarcinoma” for “6C3HED lymphosarcoma”, “test” for “test:”, “percentage of” for “percentage”, “inhibition” for “inhibition given in Table 5 below”, “14” for “11”

SMILES	GARFT inhibition (in words) (GARFT)	% Inhibition (tumor mass) ([1]; 12.5 mg/kg) [%]	% Inhibition (tumor mass) ([1]; 25 mg/kg) [%]	% Inhibition column: toxicity ([1]; 50 mg/kg)	% Inhibition (tumor mass) ([2]; 5 mg/kg) [%]	% Inhibition (tumor mass) ([2]; 10 mg/kg) [%]	% Inhibition (tumor mass) ([2]; 20 mg/kg) [%]
Nc1nc2c(c(=O)[nH]1)CC(CCc1ccc(C(=O)N[C@@H](CCC(=O)O)C(=O)O)cc1)CN2 (stereo partly shown) [5,10-dideazatetrahydrofolic acid]	specific tight binding inhibitor of GARFT						
Nc1nc2c(c(=O)[nH]1)SC(CCc1ccc(C(=O)N[C@@H](CCC(=O)O)C(=O)O)s1)CN2 (stereo partly drawn) [Compound 21, 4-[2-(2-Amino-4-oxo-4,6,7,8-tetrahydro-3H-pyrimido[5,4-6][1,4]thiazin-6-yl)-ethyl]-2,5-thienoylamino -L-glutamic acid]		100	100	toxic	16	84	100
